The test system of data set [1] is PANC-1 cell line. In words: Cytotoxicity in PANC-1 cell line. Type of data set: cell-based, human.
Data set [2] relates to PDAC xenografts. Set-up: method as in PMID 34586588. As to conditions: cited from earlier work.
Data set [3] has as its system PDAC-2 cells. In words: Scratch wound-healing migration assay, PDAC-2. Type of data set: cell-based, human. To be noted: PDAC-2, FA4 10 µM, 24 h. How it is done:
(§1) Cancer cell migration is a key factor contributing to the aggressiveness of PDAC. It is therefore important to find new compounds that can counteract or stop this process. To evaluate the effect of FA4 on cell migratory properties, a migration assay was performed by incubating cells for 24 h with FA4.
(§2) Cells were seeded into 96-well plates 72 h before the assay at a density of 5 × 10^4 /well and allowed to attach and to become confluent. Subsequently, a scratch was performed in every well with a 96-pin scratcher, allowing the formation of uniform scratches. Immediately after this passage, cells were cultured for 24 h in complete medium with the drug of interest for experimental wells or without any drug for the control wells. Pictures were taken with an optical microscope at different time points (0, 6, and 24 h) and analyzed with the Scratch Assay 6.2 software (Digital Cell Imaging Labs, Keerbergen, Belgium). The migration assay was performed in technical and biological triplicates, as reported previously.

Data set [4] concerns PDAC-2 cells. In words: cells. As to conditions: Homo sapiens, PDAC-2, 72 h, read-out: Cytotoxicity IC50 ± SD.
Experimental: (§9) Human pancreatic adenocarcinoma primary cultures (PDAC1 and PDAC2) were cultured in RPMI + 10 % New Born Calf Serum + 1% Penicillin/ Streptomycin and maintained in standard conditions for <20 passages. Cells were routinely tested for Mycoplasma spp. and were free of contamination.
(§10) Cells were seeded in 96-well flat-bottom plates at a density of 3000/well, using both a control plate and an experimental plate. After 24 h, the control plate was fixed with cold 50% trichloroacetic acid, and the incubation with the compound of interest was performed in the experimental plate. After 72 h of incubation, the experimental plate was also fixed. Subsequently, both plates were washed and stained with the SRB solution, and after vigorous washing and drying, the bound dye was extracted from the cells with an alkaline solution. The absorption of SRB was measured spectrophotometrically at a wavelength of 490 nm and 540 nm. […] Thus, cell growth inhibition was calculated as the percentage versus vehicle-treated cells (“negative control”) OD (corrected for OD of the control plate before drug addiction). Finally, the half maximal inhibitory concentration (IC50) was calculated by nonlinear least squares curve fitting (GraphPad Prism 7, Intuitive Software for Science, San Diego, CA, USA), as described previously [33]. […]
Data set [5] relates to PDAC-1 cells. In words: Scratch wound-healing migration assay, PDAC-1. The format is cell-based, human. To be noted: PDAC-1, FA4 10 µM, 24 h. How it is done:
as §1, §2

Data set [6] relates to PDAC-1 cells. In words: Apoptosis assay (annexinV-FITC), PDAC-1. The format is cell-based, human. How it is done:
(§3) Previous studies reported that the modulation of σ2 receptor activity contributes to the initiation of the apoptotic process. Therefore, we evaluated the effect of FA4 on the induction of apoptosis in the PDAC primary cultures. To this aim, we measured the externalization of the plasma membrane phosphatidylserine, a reliable marker of cell apoptosis, which was quantified by the measurement of the fluorescence of annexin-V by spectrophotometric assay and microscopy. After 24 h of treatment with 10 μM FA4, a significant increase in the portion of apoptotic cells was observed compared to untreated control cells. The highest apoptotic index was measured in the PDAC-2 cells (17.6 ± 3.6, compared to 15.5 ± 4.9 in the PDAC-1 cells).
(§4) Cells were seeded in 96-well plates (5 × 10^3 cells/well), and after 24 h, the cells were fixed with 4% paraformaldehyde in PBS for 30 min, then washed twice with PBS and stained with annexinV-FITC in binding buffer (10 mM HEPES/NaOH pH 7.4, 140 mM NaCl, and 2.5 mM CaCl2) for 10 min in the dark at room temperature. Lastly, cells were washed with the assay binding buffer solution, and fluorescence was measured by using a multimode plate reader with excitation and emission filters at 485 nm and 535 nm, respectively, to determine the apoptotic index. […]

The nature of data set [7]: Sulforhodamine B (SRB) assay, HPDE. As to conditions: human; HPDE nontransformed cells, SRB, 72 h; read-out: Cytotoxicity IC50 ± SD. The format is cell-based, human. On the technique in general: The SRB assay estimates cell density from bound dye.
Experimental: (§11) Cells were seeded in 96-well flat-bottom plates at a density of 3000/well, using both a control plate and an experimental plate. After 24 h, the control plate was fixed with cold 50% trichloroacetic acid, and the incubation with the compound of interest was performed in the experimental plate. After 72 h of incubation, the experimental plate was also fixed. Subsequently, both plates were washed and stained with the SRB solution, and after vigorous washing and drying, the bound dye was extracted from the cells with an alkaline solution. The absorption of SRB was measured spectrophotometrically at a wavelength of 490 nm and 540 nm. The intensity of the signal is proportional to the number of living cells and, therefore, a measure of their proliferation. Thus, cell growth inhibition was calculated as the percentage versus vehicle-treated cells (“negative control”) OD (corrected for OD of the control plate before drug addiction). Finally, the half maximal inhibitory concentration (IC50) was calculated by nonlinear least squares curve fitting (GraphPad Prism 7, Intuitive Software for Science, San Diego, CA, USA), as described previously [33]. The SRB assay was performed in technical and biological triplicates.
In data set [8] the test system is normal HPDE cells. In words: Sulforhodamine B (SRB) assay, HPDE. To be noted: HPDE cells vs PDAC tumor cells. The format is cell-based, human.
Experimental: as §11
The subject of data set [9] is pancreatic ductal adenocarcinoma (PDAC) primary cell cultures. In words: Antiproliferative activity on PDAC primary cell cultures (both cultures together). Type of data set: cell-based. To be noted: Homo sapiens; range over PDAC primary cell cultures; read-out: half maximal inhibitory concentration (IC50). From the text:
A new sigma-2 (σ2) receptor ligand (FA4) was efficiently synthesized and evaluated for cytotoxic, proapoptotic, and antimigratory activity on pancreatic ductal adenocarcinoma (PDAC) primary cell cultures, which restrained the aggressive and chemoresistant behavior of PDAC. […] The cytotoxic activity was associated with induction of apoptosis, resulting in apoptotic indexes higher than those observed after exposure to a clinically relevant concentration of the gemcitabine, the first-line drug used against PDAC.

The test system of data set [10] is PDAC-2 cells. In words: Apoptosis assay (annexinV-FITC), PDAC-2. The format is cell-based, human. How it is done:
as §3, §4

The test system of data set [11] is PANC-1 cell line. The arrangement: method as in PMID 34586588. To be noted: read-out: Cytotoxicity IC50 ± SD PANC-1; cited from earlier work.
In data set [12] the test system is PDAC-1 cells. In words: cells. As to conditions: Homo sapiens, 72 h, read-out: Cytotoxicity IC50 ± SD.
Experimental: as §9, §10
A short description of data set [13]: Sulforhodamine B (SRB) assay, Hs27. To be noted: human, normal skin fibroblast Hs27 cells; Hs27 nontransformed cells, SRB, 72 h; read-out: Cytotoxicity IC50 ± SD. The format is cell-based, human.
Experimental: as §11
The subject of data set [14] is normal fibroblast Hs27 cells. In words: Sulforhodamine B (SRB) assay, Hs27. Type of data set: cell-based, human. To be noted: Hs27 cells vs PDAC tumor cells.
Experimental: as §11
Data set [15] relates to breast adenocarcinoma MCF7 cells. In words: Cytotoxicity in MCF7 cells. The format is cell-based. As to conditions: Homo sapiens. How it is done: (§5) On the other hand, the data also confirmed the need for a strategy with a greater impact on pancreatic tumors. From this perspective, the multitarget FA4 appeared to be a promising candidate and was selected to be further investigated in the primary PDAC cell cultures of the present study.
(§6) Previous experiments were performed with human pancreas cancer cell lines PANC-1 (CRL-1469™), MiaPaCa2 (CRL-1420™), BxPC-3 (CRL-1687™), PANC-02.03 (CRL-2553™), AsPC-1 (CRL-1682™), human A549 lung cancer cells (CRM-CCL-185™), human MCF7 adenocarcinoma breast cells (HTB-22™), and human HepG2 hepatocarcinoma cells (HB-8065™), obtained from ATCC. PANC-1, MiaPaCa2, BxPC-3, PANC-02.03, AsPC-1, and MCF7cells were cultured in DMEM with heat inactivated 10% FBS, penicillin ([…]), and streptomycin ([…]). HepG2 cells were cultured in MEM supplemented with 10% (v/v) heat inactivated FPS, 1% (v/v) glutamine, 1% (v/v) penicillin, and streptomycin, 1% (v/v) NEAA. A549 cells were grown in HAM’S F12 supplemented with 10% heat inactivated FBS, 2 mM glutamine, 100 U mL^−1 penicillin, and 100 μg/mL streptomycin. All these cells were kept at 37 °C in a humidified incubator under an atmosphere of 5% CO2 in 75 cm^2 tissue culture flasks (Greiner Bio-One GmbH, Frickenhausen, Germany) and were harvested with trypsin-EDTA in their exponentially growing phase.

For data set [16], the target named is T1, σ2 receptor (Rattus norvegicus, UniProt Q5U3Y7).
T1 sequence (Q5U3Y7 1-176): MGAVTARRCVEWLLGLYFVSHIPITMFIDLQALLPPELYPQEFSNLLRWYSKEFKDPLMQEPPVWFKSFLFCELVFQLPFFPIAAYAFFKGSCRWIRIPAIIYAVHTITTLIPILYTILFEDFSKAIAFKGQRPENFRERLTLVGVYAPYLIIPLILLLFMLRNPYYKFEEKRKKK
In words: σ2 receptor radioligand binding assay. Here is the method: (§7) The compounds underwent radioligand binding assays on σ1 and σ2 receptors, according to the previously adopted protocols.
(§8) σ1 and σ2 receptor binding were carried out following Matsumoto et al.. […] All the procedures for the binding assays were described previously by Abate and collaborators.

Data set [17] relates to hepatocarcinoma HepG2 cells. In words: Cytotoxicity in HepG2 cells. Type of data set: cell-based. To be noted: Homo sapiens. Here is the method: as §5, §6
Data set [18] has as its system lung adenocarcinoma A549 cells. In words: Cytotoxicity in A549 cells. Type of data set: cell-based. To be noted: Homo sapiens. Here is the method: as §5, §6
Data set [19] concerns the target σ1 receptor (Cavia porcellus, UniProt Q60492). In words: σ1 receptor radioligand binding assay. To be noted: mean of n ≥ 3 separate experiments in duplicate, read-out: Ki ± SD σ1. How it is done: as §7, §8
The mark [20] stands for this setting: Homo sapiens, PANC-1, read-out: Cytotoxicity IC50 ± SD PANC-1.

Usually Ki stands for the equilibrium dissociation constant of an inhibitor or competing ligand from its target.

Read-outs that look alike come from different tables or passages of the source.

Sequence of σ1 receptor (Q60492 whole entry): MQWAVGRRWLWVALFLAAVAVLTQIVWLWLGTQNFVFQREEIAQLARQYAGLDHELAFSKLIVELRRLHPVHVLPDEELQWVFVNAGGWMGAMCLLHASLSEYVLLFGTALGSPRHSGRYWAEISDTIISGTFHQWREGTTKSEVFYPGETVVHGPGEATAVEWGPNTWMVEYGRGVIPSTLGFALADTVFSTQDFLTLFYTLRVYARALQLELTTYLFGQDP

Take `CC(C)=CCN1CC[C@]2(C)c3cc(O)ccc3C[C@H]1[C@H]2C` [(+)-pentazocine]: in [1] (setting [20]), the IC50 is more than 50 µM.

For the compound `Cc1ccccc1N=C(N)Nc1ccccc1C` [DTG], the IC50 in data set [1] (PANC-1 cell line, read-out: Cytotoxicity IC50 ± SD PANC-1) is more than 50 µM.

Turning to `CN(C)C(=S)N/N=C1\C(=O)N(CCCCN2CCC3(CC2)OCc2ccccc23)c2ccccc21` [FA4], the “safety in PDAC xenografts” value in data set [2] is “safe”. Also, the migration rate entry in [3] and in [5] was “significantly inhibit the migration rate” each time. Besides, the IC50 in [4] is 0.701 ± 0.059 µM; in data set [9], 0.701 to 0.825 µM; in data set [11], 3.01 ± 0.9 µM; in data set [12], 0.825 ± 0.006 µM. The apoptotic index in data set [6] (PDAC-1, 10 μM, 24 h, annexinV-FITC fold change compared to control cells) turned out to be 15.5 ± 4.9; in data set [10] (PDAC-2, 10 μM, 24 h, annexinV-FITC fold change compared to control cells), 17.6 ± 3.6. For the same compound, the “percentages of apoptotic cells compared to gemcitabine at 10 μM” value in data set [6] (PDAC-1, 24 h treatment) is listed as “significantly higher”; in data set [10] (PDAC-2, 24 h treatment) it was “significantly higher”. Besides, the results for the IC50 at 72 h in data set [7] and in data set [13] were 8.07 ± 0.302 µM and 5.55 ± 0.333 µM, respectively. Besides, the entries for the “selectivity index (SI, IC50 non-tumor cells/IC50 tumor cells)” value in data set [8] and in data set [14] were 11 and 7, respectively.

For the compound `c1ccc2c(c1)COC21CCN(CCCCn2ccc3ccccc32)CC1` [MT8, 1’-(4-(1H-indol-1-yl)butyl)-3H-spiro[isobenzofuran-1,4’-piperidine]], in data set [1], the “cytotoxic potency relative to FA4” value is “six-fold less potent than FA4”. The IC50 in [1] (setting [20]) amounted to 19.1 ± 1.3 µM; in data set [15], 6.02 µM; in data set [17], 3.2 µM; in data set [18], 4.29 µM. Also, the Ki in [16] was found to be 0.00043 ± 0.0001 µM; in data set [19], 0.0273 ± 0.0026 µM.

For the compound `Fc1ccc(-n2cc(CCCCN3CCC4(CC3)OCc3ccccc34)c3ccccc32)cc1` [Siramesine], in data set [1] (Homo sapiens, PANC-1 cell line, read-out: Cytotoxicity IC50 ± SD PANC-1), the IC50 was more than 50 µM.

The record behind these values is paper PMC8911630, “New Pharmacological Strategies against Pancreatic Adenocarcinoma: The Multifunctional Thiosemicarbazone FA4” (Molecules, 2022).
